This note sets out measurements from article PMC5514153, “Targeting PTPRZ inhibits stem cell-like properties and tumorigenicity in glioblastoma cells” (Scientific Reports, 2017).

One experiment relates to human U251 cells. Nature of the experiment: Cellular effects in U251 cells. The format is cell-based. The following applies: proliferation, migration, SOX2 (Supplementary Fig. S4). On the procedure:
This assay was performed as described previously. Briefly, cells were preincubated with compounds for 30 min, and then transferred onto a laminin-coated transwell insert in which the lower chambers contained epidermal growth factor (EGF, #E9644, Sigma-Aldrich). Cells were allowed to migrate for 3 h, and the number of cells that migrated to the lower surface was counted under a conventional fluorescence microscope.
(§1) Cells (3 × 10^4 cells) were inoculated into a 24-well plastic tissue culture plate with 500 µl of DMEM supplemented with 2% FBS and the indicated compounds for 48 h. Cells were harvested by trypsinization and then manually counted with a hemacytometer.
Cells were inoculated at 5 × 10^3 cells per 96-well uncoated polystyrene plate (# 9018, Corning) or 5 × 10^4 cells per 35-mm plastic petri dish (#351008, Corning), and cultured in a serum-free medium containing DMEM/F12 with 1x B27 supplement (#17504044, Thermo Fisher Scientific), EGF (20 ng/ml), and basic fibroblast growth factor (bFGF, 20 ng/ml, #064-05381, Wako pure chemical). After a 7-day culture, cells were fixed with 10% neutral formalin and pictured under a conventional microscope. The number of spheroids of approximately 70 µm in diameter were counted manually using Adobe Photoshop CS6 (Adobe).

In another experiment the test system is C6 cells. Nature of the experiment: Cell proliferation assay, C6 cells. The format is cell-based, rat. The following applies: 48 h, 2% FBS. On the procedure: Figure 7 Cellular effects of NAZ2329 on the malignant phenotypes of C6 cells. (A) Phosphorylation of paxillin at Tyr-118. C6 cells were incubated with NAZ2329 for the indicated periods. Immunoprecipitated paxillin was analyzed by Western blotting using anti-pY118-paxillin and anti-paxillin. Blots are representative of five independent cultures. […] (B) Cell proliferation assay. C6 cells were incubated for 48 h with NAZ2329 in normal medium containing 2% FBS. […] (C) Boyden chamber assay. Cells were allowed to migrate for 3 h. DAPI-stained nuclei are shown before (total) and after (migrated) the removal of cells remaining in the top chamber. Scale bars, 100 µm. […] (D,E) Sphere formation (D) and SOX2 expression (E). C6 cells were cultured in CSC medium for 7 days with indicated concentrations of NAZ2329. Images are representative of five independent cultures. Scale bars, 100 µm. […] (F) Self-renewal of C6 spheres. C6 spheres were initially developed in CSC medium for 7 days, followed by an incubation with NAZ2329 in CSC medium for 5 days. Images are representative of five independent cultures. Scale bars, 100 µm. […]
as §1

`CCOc1ccc(C(F)(F)F)cc1CSc1ccsc1C(=O)NS(=O)(=O)c1ccccc1` [NAZ2329]: in the experiment with human U251 cells, the “cellular effects in U251 cells compared with C6 cells” value was “exerted similar effects”. Moreover, in the experiment on C6 cells, the cell proliferation result is recorded as “inhibited cell proliferation”.
